Experimental data published in US20040248887A1, “Inhibitors of cathepsin S” (IRM LLC, priority 2003, published 2004).

Molecular target: Cathepsin S (Homo sapiens, UniProt P25774)
Assay: Cathepsin S inhibition, fluorogenic peptide substrate kinetic assay
Assay type: biochemical
Details: Table II; Cathepsin S inhibition constant, pH5.5; read-out: Ki Cat. S
From the text: “Inhibition constant”, Ki, is the dissociation constant of the enzyme-inhibitor complex, or the reciprocal of the binding affinity of the inhibitor to the enzyme. […] The inhibited rates are then fit by nonlinear regression to the following equation: [formula]
where vo is the initial rate of substrate processing in the absence of inhibitor, v; is the initial rate of substrate processing at a concentration [I] of inhibitor, Km is the steady state Michaelis constant (Fersht, A. Structure and Mechanism in Protein Science. New York, W.H. Freeman and Company, 1999), and [S] is the concentration of competitive substrate.
The assumption being made for the classical inhibition described above is that the free inhibitor concentration is equal to the total inhibitor concentration.
The inhibition constant, Ki, can be determined from the apparent inhibition constant, Ki^app, for competitive inhibitors by using the following relationship: [formula]
The optimal substrate for cathepsin S, acetyl-histidine-proline-valine-lysine-amino carbamoyl coumarin, was identified from screening a combinatorial library of fluorogenic peptide substrates (Harris, J. L., B. J. Backes, et al., Proc Natl Acad Sci USA 2000, 97(14), 7754-9). Kinetic measurements are performed in a total reaction volume of 30 μl in 384-well microtiter plates. […] The reactions are initiated by adding the substrate, acetyl-histidine-proline-valine-lysine-amino carbamoyl coumarin, to a final concentration of 50 μM. The rate of substrate hydrolysis is measured by monitoring the increase in fluorescence at an excitation wavelength of 380 nm and an emission wavelength of 450 nm that results from cleavage of the aniline bond in the substrate by the enzyme. The apparent inhibition constants for the compounds are determined from the enzyme progress curves (Kuzmic, P., K. C. Elrod, et al., Anal Biochem 2000, 286(1), 45-50) and are then used to calculate the inhibition constants for competitive inhibitors.

Sequence of Cathepsin S (P25774 115-331, species assumed): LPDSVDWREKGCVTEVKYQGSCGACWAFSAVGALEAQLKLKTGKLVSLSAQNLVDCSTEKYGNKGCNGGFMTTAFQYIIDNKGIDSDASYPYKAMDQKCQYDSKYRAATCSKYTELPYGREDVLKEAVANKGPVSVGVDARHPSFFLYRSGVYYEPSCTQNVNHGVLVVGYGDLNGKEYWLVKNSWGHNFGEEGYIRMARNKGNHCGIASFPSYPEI

Ki [nM] | Structure (SMILES)
< 1000 | C[C@@H](CN1c2ccc(F)cc2CC1(C)C)NC(=O)[C@H](CC1CCCCC1)NC(=O)[C@H]1CCCO1 [Compound 274, Tetrahydrofuran-2-(R)-carboxylic acid {2-cyclohexyl-1-(S)-[2-(5-fluoro-2,2-dimethyl-2,3-dihydro-indol-1-yl)-1-(S)-methyl-ethylcarbamoyl]-ethyl}-amide]
< 100 | C[C@@H](CNc1ccc(OC(F)(F)F)cc1)NC(=O)[C@H](CC1CCCCC1)NC(=O)O[C@@H]1CCOC1 [Compound 188, {2-Cyclohexyl-1-(S)-[1-(S)-methyl-2-(4-trifluoromethoxy-phenylamino)-ethylcarbamoyl]-ethyl}-carbamic acid tetrahydrofuran-3-(R)-yl ester]
< 1000 | Cc1cccc(C(=O)N[C@@H](Cc2ccccc2)C(=O)NCCN2CCc3cc(F)ccc32)c1 [Compound 205, N-((S)-1-(2-(5-fluoroindolin-1-yl)ethylcarbamoyl)-2-phenylethyl)-3-methylbenzamide]
< 1000 | COc1ccc(S(=O)(=O)N[C@@H](CC2CCCCC2)C(=O)NCCN2CCc3cc(F)ccc32)cc1 [Compound 239, (S)-3-Cyclohexyl-N-[2-(5-fluoro-2,3-dihydro-indol-1-yl)-ethyl]-2-(4-methoxy-benzenesulfonylamino)-propionamide]
< 100 | O=C(N[C@@H](CC1CCCCC1)C(=O)NCCN1CCc2cc(F)ccc21)c1csc(-c2ccccc2)n1 [Compound 76, 2-Phenyl-thiazole-4-carboxylic acid (S)-{2-cyclohexyl-1-[2-(5-fluoro-2,3-dihydro-indol-1-yl)-ethylcarbamoyl]-ethyl}-amide]
< 100 | C[C@@H](CNc1ccc(OC(F)(F)F)cc1)NC(=O)[C@H](CC1CCCC1)NC(=O)OC1CCOCC1 [Compound 190, (S,S)-{2-Cyclopentyl-1-[1-methyl-2-(4-trifluoromethoxy-phenylamino)-ethylcarbamoyl]-ethyl}-carbamic acid tetrahydropyran-4-yl ester]
< 100 | Cc1cccc(S(=O)(=O)N[C@@H](CC(C)(C)C)C(=O)N[C@@H](C)CN2CCc3cc(F)ccc32)c1 [Compound 265, (S,S)-4,4-Dimethyl-2-(toluene-3-sulfonylamino)-pentanoic acid [2-(5-fluoro-2,3-dihydro-indol-1-yl)-1-methyl-ethyl]-amide]
< 100 | CS(=O)(=O)c1cccc(C(=O)N[C@@H](CC2CCCCC2)C(=O)NCCN2CCc3cc(F)ccc32)c1 [Compound 80, N-(S)-{2-cyclohexyl-1-[2-(5-fluoro-2,3-dihydro-indol-1-yl)-ethylcarbarnoyl]-ethyl}-3-methanesulfonyl-benzamide]
< 10000 | COc1cccc(C(=O)N[C@@H](CCC2CCCCC2)C(=O)NCCN2CCc3c(OC)cccc32)c1 [Compound 15, (S)-N-{3-Cyclohexyl-1-[2-(4-methoxy-2,3-dihydro-indol-1-yl)-ethylcarbamoyl]-propyl}-3-methoxy-benzamide]
< 10000 | COc1ccc(NC[C@@H](C)NC(=O)[C@H](CCC2CCCCC2)NC(=O)c2cc3ccccc3[nH]2)cc1 [Compound 25, 1H-Indole-2-carboxylic acid {3-cyclohexyl-(1S)-[2-(4-methoxy-phenylamino)-(1R)-methyl-ethylcarbamoyl]-propyl}-amide]

More lines, now with the values behind:

Structure (SMILES) | Ki [nM]
C[C@@H](CNc1ccccc1S(C)(=O)=O)NC(=O)[C@H](CC1CCCCC1)NC(=O)c1ccc(-c2cccc(F)c2)o1 [Compound 116, 5-(3-Fluoro-phenyl)-furan-2-carboxylic acid {2-cyclohexyl-1-(S)-[2-(2-methanesulfonyl-phenylamino)-1-(S)-methyl-ethylcarbamoyl]-ethyl}-amide] | < 100
CC(C)(C)C[C@H](NC(=O)c1ccc(-c2cccc(C(F)(F)F)c2)o1)C(=O)NCCN1CCc2cc(F)ccc21 [Compound 202, N-((S)-1-(2-(5-fluoroindolin-1-yl)ethylcarbamoyl)-3,3-dimethylbutyl)-5-(3-(trifluoromethyl)phenyl)furan-2-carboxamide] | < 100
CC(C)(C)OC(=O)N[C@@H](CC1CCCCC1)C(=O)N[C@@H](CC(=O)OCc1ccccc1)CN1CCc2cc(F)ccc21 [Compound 261, (S,S)-3-(2-tert-Butoxycarbonylamino-3-cyclohexyl-propionylamino)-4-(5-fluoro-2,3-dihydro-indol-1-yl)-butyric acid benzyl ester] | < 100
C[C@@H](CNc1ccc(OC(F)(F)F)cc1)NC(=O)[C@H](CC1CCCCC1)NS(=O)(=O)c1cccnc1 [Compound 183, (S,S)-3-Cyclohexyl-N-[1-methyl-2-(4-trifluoromethoxy-phenylamino)-ethyl]-2-(pyridine-3-sulfonylamino)-propionamide] | < 100
O=C(NCCN1CCc2cc(F)ccc21)[C@H](CC1CCCCC1)NS(=O)(=O)c1ccc(C(F)(F)F)cc1 [Compound 229, (S)-3-Cyclohexyl-N-[2-(5-fluoro-2,3-dihydro-indol-1-yl)-ethyl]-2-(4-trifluoromethyl-benzenesulfonylamino)-propionamide] | < 1000
CS(=O)(=O)c1ccc(C(=O)N[C@@H](CC2CCCCC2)C(=O)NCCN2CCc3cc(F)ccc32)s1 [Compound 72, 5-Methanesulfonyl-thiophene-2-carboxylic acid (S)-{2-cyclohexyl-1-[2-(5-fluoro-2,3-dihydro-indol-1-yl)-ethylcarbamoyl]-ethyl}-amide] | < 100
C[C@@H](CNc1ccc(OC(F)F)cc1)NC(=O)[C@H](CC(C)(C)C)NC(=O)c1ccc(-c2cccc(F)c2)o1 [Compound 128, 5-(3-Fluoro-phenyl)-furan-2-carboxylic acid {1-(S)-[2-(4-difluoromethoxy-phenylamino)-1-(S)-methyl-ethylcarbamoyl]-3,3-dimethyl-butyl}-amide] | < 100
C[C@@H](CNc1ccc(OC(F)(F)F)cc1)NC(=O)[C@H](CC1CCCCC1)NC(=O)O[C@@H]1CCN(C(=O)OC(C)(C)C)C1 [Compound 185, 3-(R)-{2-Cyclohexyl-1-(S)-[1-(S)-methyl-2-(4-trifluoromethoxy-phenylamino)-ethylcarbamoyl]-ethylcarbamoyloxy}-pyrrolidine-1-carboxylic acid tert-butyl ester] | < 1000
C[C@@H](CNc1ccc(OC(F)F)cc1)NC(=O)[C@H](CC1CCCCC1)NC(=O)c1ccc(-c2cccc(F)c2)o1 [Compound 84, 5-(3-Fluoro-phenyl)-furan-2-carboxylic acid {2-cyclohexyl-1-(S)-[2-(4-difluoromethoxy-phenylamino)-1-(S)-methyl-ethylcarbamoyl]-ethyl}-amide] | < 100
O=C(NCCN1CCc2cc(F)ccc21)[C@H](CC1CCCCC1)NS(=O)(=O)c1scc(Br)c1Cl [Compound 224, (S)-2-(4-Bromo-3-chloro-thiophene-2-sulfonylamino)-3-cyclohexyl-N-[2-(5-fluoro-2,3-dihydro-indol-1-yl)-ethyl]-propionamide] | < 1000
COc1cccc(C(=O)N[C@@H](CC(C)(C)C)C(=O)N[C@@H](CC#N)CN2CCc3cc(F)ccc32)c1 [Compound 165, N-{1-(S)-[2-Cyano-1-(S)-(5-fluoro-2,3-dihydro-indol-1-ylmethyl)-ethylcarbamoyl]-3,3-dimethyl-butyl}-3-methoxy-benzamide] | < 100
COc1cccc(C(=O)N[C@@H](CCC2CCCCC2)C(=O)NCCN2CCc3cc(OCc4ccccc4)ccc32)c1 [Compound 19, (S)-N-{3-Cyclohexyl-1-[2-(5-benzyloxy-2,3-dihydro-indol-1-yl)-ethylcarbamoyl]-propyl}-3-methoxy-benzamide] | < 10000
O=C(NC(C(=O)N[C@@H](CO)CN1CCc2cc(F)ccc21)c1ccc(Cl)cc1Cl)c1ccc(F)c(F)c1 (mixture of isomers) [Compound 208, N-(R,S)-((3-(5-fluoroindolin-1-yl)-1-hydroxypropan-2-(R)-ylcarbamoyl)(2,4-dichlorophenyl)methyl)-3,4-difluorobenzamide] | < 100
O=C(N[C@@H](CC1CCCCC1)C(=O)NCCN1CCc2cc(F)ccc21)c1ccoc1 [Compound 13, Furan-3-carboxylic acid (S)-{2-cyclohexyl-1-[2-(5-fluoro-2,3-dihydro-indol-1-yl)-ethylcarbamoyl]-ethyl}-amide] | < 100
COc1cc(C)c(NC[C@H](C)NC(=O)[C@H](CC2CCCCC2)NC(=O)c2ccc(-c3cccc(F)c3)o2)c(C)c1 [Compound 114, 5-(3-Fluoro-phenyl)-furan-2-carboxylic acid {2-cyclohexyl-1-(S)-[2-(4-methoxy-2,6-dimethyl-phenylamino)-1-(S)-methyl-ethylcarbamoyl]-ethyl}-amide] | < 100
Cc1cc(C(=O)N[C@@H](CC2CCCCC2)C(=O)NCCN2CCc3cc(F)ccc32)c(C(F)(F)F)o1 [Compound 78, 5-Methyl-2-trifluoromethyl-furan-3-carboxylic acid (S)-{2-cyclohexyl-1-[2-(5-fluoro-2,3-dihydro-indol-1-yl)-ethylcarbamoyl]-ethyl}-amide] | < 100
